Data: the NIST ThermoML archive (doi:10.1016/j.jct.2012.09.019)
Numbers after ± are expanded uncertainties.

Experiments:
[1] = refractive index (Na D-line) (dimensionless); conditions: 293.15 K; 101.33 kPa; Liquid; digital refractometer
[2] = Crystal

Compound | refractive index [1] | Normal melting temperature ([2]; Heating/Cooling curves) | Normal melting temperature ([2]; heating/cooling curves)
CCCCCCC(=O)O [heptanoic acid] | 1.4229 ± 0.0014 | -7.5 ± 2 °C | –
C1CCCCC1 [cyclohexane] | 1.42631 ± 0.0014 | 6.7 ± 2 °C | –
CCCCCCCCCCCCCCCC [hexadecane] | 1.43461 ± 0.0014 | 18.1 ± 2 °C | 18.0 ± 2 °C
CCCC(=O)O [butanoic acid] | 1.39808 ± 0.0014 | -5.2 ± 2 °C | –

Now from value to molecule:

refractive index [1] | Normal melting temperature ([2]; Heating/Cooling curves) | Normal melting temperature ([2]; heating/cooling curves) | Compound
1.40857 ± 0.0015 | -34.4 ± 2 °C | – | CCCCC(=O)O [pentanoic acid]
1.38682 ± 0.0014 | -20.8 ± 2 °C | – | CCC(=O)O [propanoic acid]
1.41692 ± 0.0015 | -2.4 ± 2 °C | – | CCCCCC(=O)O [hexanoic acid]
